Columns and labels:
[1] = target: T1, Aβ42 aggregate (Homo sapiens, UniProt P05067); assay: Inhibition constant toward Aβ42 aggregate (thioflavin S competition); type: binding; settings: thioflavin S as ligand, read-out: Ki values (Aβ42 in Table 5)
T1 construct: Aβ (1-42) peptide; purchased Peptide Institute, Inc
Method: (§1) First, the dissociation constant (Kd) of thioflavin S used as a competitive ligand was first determined by a saturation experiment in order to calculate inhibition constants of compounds 1 to 3. That is, a mixed solution of a 10 vol % ethanol aqueous solution of thioflavin S (0.1-12.8 μmol/L) and the tau protein aggregate (final concentration 0.2 μmol/L, prepared in Example 9) or the Aβ42 aggregate (final concentration 2.2 μmol/L, prepared in Example 11) was incubated for 30 minutes, and the fluorescence intensity was measured using a fluorescence plate reader (FLEX STATION, Molecular Devices). The fluorescence intensity was measured at Ex 440 nm and Em 510 nm for the tau protein aggregate and Ex 440 nm and Em 490 nm for the Aβ42 aggregate. A saturation curve was prepared using GraphPad Prism, and the Kd value for thioflavin S was calculated.
(§2) Next, a mixed solution of a 10 volt ethanol aqueous solution of thioflavin S (1.5 μmol/L) and a test compound (0.6 nmol/L to 10 μmol/L) together with the tau protein aggregate (final concentration 0.2 μmol/L, prepared in Example 9) or the Aβ42 aggregate (final concentration 10 μg/ml, prepared in Example 11) was incubated for 30 minutes. Then, the fluorescence intensities at Ex 440 nm and Em 510 nm for the tau protein aggregate and Ex 440 nm and Em 490 nm for the Aβ42 aggregate were measured using a fluorescence plate reader (FLEX STATION, Molecular Devices). GraphPad Prism inhibition curves were prepared, and Ki values of compounds 1 to 3 were determined using the above obtained Kd value of thioflavin S.

[2] = system: human brain neurofibrillary tangles; assay: Fluorescent staining of Alzheimer's disease patient brain slice (binding to human brain neurofibrillary tangles); settings: 200 μmol/L, 1 hour
Method: A fluorescent staining experiment with compound 3 using an Alzheimer's disease patient brain slice was carried out in order to evaluate binding to human brain neurofibrillary tangles. A postmortem brain slice (paraffin-embedded slice) of an Alzheimer's disease patient purchased from BioChain was washed with xylene (5 minutes×twice), ethanol, ethanol, a 95 vol % ethanol aqueous solution, an 85 volt ethanol aqueous solution, and a 70 vol % ethanol aqueous solution (1 minute×once) to thus carry out deparaffinization. Subsequently, it was treated in sequence with a 0.3 wt % potassium permanganate aqueous solution (20 minutes×once), PBS (phosphoric acid buffer physiological saline) (2 minutes×twice), a 1 wt % potassium metabisulfite aqueous solution/1 wt % oxalic acid aqueous solution (1 minute×once), PBS (2 minutes×twice), a 1 wt % sodium borohydride aqueous solution (5 minutes×once), and PBS (2 minutes×twice) in order to remove self-fluorescence of the slice. Blocking using 3 wt % BSA-containing PBS/0.1 wt % tritonX100-containing PBS was carried out for 3 hours. Then, a test compound (200 μmol/L/50 vol % ethanol aqueous solution) and the slice were incubated for 1 hour. The slice was washed with 50 vol % ethanol, and examined using a fluorescence microscope. Furthermore, the same slice was stained using thioflavin S (0.125 wt %, 50 vol % ethanol aqueous solution) for 10 minutes. […]

[3] = target: T2, tau protein aggregate (Homo sapiens, UniProt P10636); assay: Competitive inhibition experiment using thioflavin S (ThS) as ligand, fluorescence spectra; type: binding; parameters: made in house; host or cells: E. coli BL21; settings: tau protein aggregate 0.2 μmol/L, thioflavin S 1.5 μmol/L, compound 0.1-2.7 μmol/L, excitation 440 nm
T2 sequence (P10636 1-441 isoform P10636-8): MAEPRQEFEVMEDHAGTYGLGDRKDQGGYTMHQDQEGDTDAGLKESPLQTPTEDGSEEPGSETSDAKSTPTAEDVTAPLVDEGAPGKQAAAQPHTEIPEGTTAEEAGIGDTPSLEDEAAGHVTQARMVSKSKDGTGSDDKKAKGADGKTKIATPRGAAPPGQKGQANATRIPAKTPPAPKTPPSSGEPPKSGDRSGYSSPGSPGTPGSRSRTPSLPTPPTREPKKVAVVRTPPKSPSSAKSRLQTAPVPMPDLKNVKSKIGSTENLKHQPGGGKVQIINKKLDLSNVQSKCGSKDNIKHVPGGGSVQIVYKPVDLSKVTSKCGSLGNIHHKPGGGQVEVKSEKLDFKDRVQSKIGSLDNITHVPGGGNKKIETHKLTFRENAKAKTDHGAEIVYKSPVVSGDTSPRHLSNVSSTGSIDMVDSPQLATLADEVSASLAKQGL
Method: Tau-441 expression vector (provided by Graduate School of Medicine, Osaka City University) was transferred to E. coli (BL21), culturing was carried out, and a tau protein was extracted and purified. Heparin (0.1 mg/mL) was added to the purified tau protein (1 mg/mL), and incubation in a 50 mmol/L MES buffer (pH 6.8, 100 mmol/L sodium chloride, 0.5 mmol/L EGTA) at 37° C. was carried out for 3 days, thus preparing an aggregate. Formation of the tau protein aggregate was confirmed by SDS-PAGE and thioflavin S fluorescence assay.
A mixed solution (550 μL) of the tau protein aggregate (final concentration […]) thus prepared, thioflavin S (Sigma Aldrich, final concentration 1.5 μmol/L), and compound 1, compound 2, or compound 3 solution at various concentrations (each having final concentrations of 0 to 2.7 μmol/L) was incubated for 30 minutes, and fluorescence spectra at an excitation wavelength of 440 nm were measured using a fluorescence spectrometer (RF-5300PC, Shimadzu Corporation).
In FIGS. 3 to 5, a is a fluorescence spectrum of a sample (sample I) containing only thioflavin S at 1.5 μmol/L, and b is a fluorescence spectrum of a sample (sample II) that is 0.2 μmol/L of the tau protein aggregate in sample I. In FIG. 3, c is a fluorescence spectrum of a sample that is 0.1 μmol/L of compound 1 in sample II, d is a fluorescence spectrum of a sample that is 0.3 μmol/L of compound 1 in sample II, e is a fluorescence spectrum of a sample that is 0.9 μmol/L of compound 1 in sample II, and f is a fluorescence spectrum of a sample that is 2.7 μmol/L of compound 1 in sample II. In FIG. 4, c is a fluorescence spectrum of a sample that is 0.1 μmol/L of compound 2 in sample II, d is a fluorescence spectrum of a sample that is 0.3 μmol/L of compound 2 in sample II, e is a fluorescence spectrum of a sample that is 0.9 μmol/L of compound 2 in sample II, and f is a fluorescence spectrum of a sample that is 2.7 μmol/L of compound 2 in sample II. […]

[4] = target: T2, tau protein aggregate; assay: Inhibition constant toward tau protein aggregate (thioflavin S competition); type: binding; parameters: made in house; host or cells: E. coli BL21
Method: as §1, §2

T1 sequence (P05067 672-713 limits assumed): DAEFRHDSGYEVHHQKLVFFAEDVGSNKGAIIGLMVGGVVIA

`O=C1/C(=C/c2ccc(-c3cccc(I)c3)o2)NC(=S)N1CCc1c[nH]cn1` [Compound 3, (Z)-3-(2-(1H-imidazol-4-yl)ethyl)-5-((5-(3-iodophenyl)furan-2-yl)methylene)-2-thioxoimidazolidin-4-one] was tested, and the Ki [1] was 469 nM, the “Fluorescent staining of brain slice vs AT8 immunostaining” value [2] was “Prominent fluorescence accumulation” and the “Inhibition of binding of tau protein aggregate to thioflavin S (fluorescence spectra)” value [3] was “inhibition of binding of a tau protein aggregate to thioflavin S”. The “Ki ratios of Aβ42/Tau” value ([4]; ratio of Ki Aβ42 aggregate to Ki tau protein aggregate) was 7.33 and the Ki ([4]; thioflavin S as ligand, tau protein aggregate, read-out: Ki values (Tau in Table 5)) was 64 nM.
